{"source": "paper PMC10002220", "about": "“In Vivo Reversal of P-Glycoprotein-Mediated Drug Resistance in a Breast Cancer Xenograft and in Leukemia Models Using a Novel, Potent, and Nontoxic Epicatechin EC31” (International Journal of Molecular Sciences, 2023)", "key": {"P-gp [1]": {"target": "T1, P-gp (Homo sapiens, UniProt P08183)", "T1 sequence (P08183 whole entry)": "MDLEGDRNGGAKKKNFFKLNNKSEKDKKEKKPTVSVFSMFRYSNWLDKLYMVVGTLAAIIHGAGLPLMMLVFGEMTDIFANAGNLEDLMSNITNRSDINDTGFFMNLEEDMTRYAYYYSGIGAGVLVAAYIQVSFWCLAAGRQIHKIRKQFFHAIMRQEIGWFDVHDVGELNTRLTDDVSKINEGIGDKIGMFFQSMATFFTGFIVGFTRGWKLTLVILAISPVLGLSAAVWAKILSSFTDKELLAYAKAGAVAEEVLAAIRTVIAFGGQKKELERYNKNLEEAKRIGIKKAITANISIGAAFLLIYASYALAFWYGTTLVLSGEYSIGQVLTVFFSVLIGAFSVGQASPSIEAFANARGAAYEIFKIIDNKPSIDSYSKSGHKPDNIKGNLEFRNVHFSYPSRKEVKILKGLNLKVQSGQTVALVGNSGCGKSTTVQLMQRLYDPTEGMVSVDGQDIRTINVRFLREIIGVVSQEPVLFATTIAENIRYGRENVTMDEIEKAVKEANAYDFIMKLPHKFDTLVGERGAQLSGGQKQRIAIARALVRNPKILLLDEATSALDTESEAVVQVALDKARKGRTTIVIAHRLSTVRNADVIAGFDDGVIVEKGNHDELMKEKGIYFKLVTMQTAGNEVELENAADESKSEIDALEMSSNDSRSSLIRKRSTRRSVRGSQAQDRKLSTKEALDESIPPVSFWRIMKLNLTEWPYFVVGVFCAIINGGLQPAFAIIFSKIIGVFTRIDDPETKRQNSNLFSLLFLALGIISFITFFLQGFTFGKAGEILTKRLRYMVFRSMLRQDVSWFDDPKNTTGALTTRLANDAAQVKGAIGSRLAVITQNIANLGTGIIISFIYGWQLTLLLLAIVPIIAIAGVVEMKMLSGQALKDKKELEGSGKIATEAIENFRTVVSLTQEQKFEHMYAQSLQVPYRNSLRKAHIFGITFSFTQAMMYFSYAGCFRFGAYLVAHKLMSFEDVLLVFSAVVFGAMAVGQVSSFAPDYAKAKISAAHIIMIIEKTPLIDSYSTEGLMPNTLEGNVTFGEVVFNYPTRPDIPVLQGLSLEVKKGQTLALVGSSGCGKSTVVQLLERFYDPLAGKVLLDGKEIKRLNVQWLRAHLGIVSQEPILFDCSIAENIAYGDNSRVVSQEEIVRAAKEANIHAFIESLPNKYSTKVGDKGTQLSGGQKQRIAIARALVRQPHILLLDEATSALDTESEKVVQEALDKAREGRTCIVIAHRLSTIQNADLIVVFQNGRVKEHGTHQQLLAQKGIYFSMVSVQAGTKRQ", "assay": "EC50 for reversing drug resistance in K562/P-gp cells (cell proliferation assay)", "details": "EC50 for Reversing MDR", "excerpt": "(§2) EC50 was defined as the concentration at which the modulator can reduce the IC50 of an anticancer drug by half in the P-gp-overexpressing cell lines. […] The P-gp-modulating activity of methylated catechin derivatives was further studied by measuring the EC50. […] Three P-gp-overexpressing cell lines were employed, including breast cancer cell line LCC6MDR, mouse leukemia cell line P388ADR, and human leukemia cell line K562/P-gp. The anticancer drugs tested included DOX, PTX, and VCR. All values were presented as mean ± standard error of mean. N = 3–6 independent experiments.\n(§3) About 6500 cells of LCC6MDR or 10,000 cells of P388ADR or K562/P-gp were seeded to each well of 96-well plate and were then incubated at 37 °C overnight. […] Cell viability was determined using CellTiter 96 AQueous Assay (Promega, Madison, WI, USA, #G1111) as reported previously [38]. The % of cell survival, IC50 of anticancer drugs towards the cell line, and EC50 of modulators were analyzed using nonlinear regression in Prism 5.0."}, "P388ADR leukemia": {"tested_on": "P388ADR leukemia", "assay": "In vivo efficacy in reversing DOX resistance in murine leukemia P388ADR model", "parameters": "species or system B6D2F1 mice", "description": "Irradiated BDF1 mice were i.p. inoculated with P388ADR cells, which caused mouse leukemia. Irradiated NOD/SCID mice were i.v. inoculated with K562/P-gp cells, which caused human leukemia. The mice were randomized and treated with (1) control treatment (no treatment), (2) DOX alone, and (3) EC31 + DOX. Treatments were given as indicated by the arrows. The number of mice deaths in each treatment group was recorded every day. (A) The percent survival of mice infected with P388ADR. (B) The percent survival of mice infected with K562/P-gp. The mice median survival days and the increased lifespan (ILS) were analyzed with Log-rank (Mantel–COX) test in Prism 5.0. Student’s paired t test was conducted as indicated. ** represents p < 0.01, and *** represents p < 0.001. N.S. = not significant.\nAbout 1 × 10^6 cells of P388ADR were i.p. inoculated in male B6D2F1 mice aged 5–7 weeks old. There were 3 groups: (1) control group with no treatment, (2) DOX (3 mg/kg i.p.) alone, and (3) cotreatment with EC31 (60 mg/kg i.p.) being injected 1 h prior to DOX (3 mg/kg i.p.) administration. In group 2, DOX was i.p. injected on days 2, 6, 10, 14, and 18 only. In group 3, EC31 was i.p. injected on days 1, 2, 5, 6, 9, 10, 13, 14, 17, and 18, and DOX was i.p. injected on days 2, 6, 10, 14, and 18. Before each treatment, 1.5 mg/mL of DOX was freshly prepared using PBS. Mice survival and body weight were monitored during the study period."}, "P-gp [2]": {"tested_on": "P-gp", "assay": "EC50 for reversing drug resistance in P388ADR cells (cell proliferation assay)", "excerpt": "as §2, §3"}, "P-gp [3]": {"target": "T1, P-gp", "assay": "EC50 for reversing drug resistance in LCC6MDR cells (cell proliferation assay)", "details": "for EC50: EC50 for Reversing MDR, LCC6MDR", "excerpt": "as §2, §3"}, "K562/P-gp cells": {"tested_on": "K562/P-gp cells", "assay": "EC31 efflux in K562/P-gp cells", "format": "cell-based, human", "details": "after 150 min of efflux, preincubated with 1 µM", "description": "(§1) N = 3 independent experiments.\nAfter incubation, the medium was removed, and cells were washed with cold PBS twice. To the cell pellet, 300 μL of acetonitrile was added. The cells were sonicated for 10 min at 50 Hz using Intertek-CD-3800(A) sonicator. The lysed cells were then spun at 14,000 rpm for 10 min at room temperature. The supernatant containing EC31 was saved and was filtered with 0.45 µm syringe filter before UPLC-MS/MS analysis. For the efflux assay, the cells were preincubated with 1 μM EC31 at 37 °C for 2.5 h. The cells were then washed with PBS, were resuspended in drug-free medium, and were further incubated at 37 °C. The cells were collected at 0, 30, 60, and 150 min, respectively. The intracellular EC31 at different time points was analyzed as described in the Section 4.9."}, "P-gp [4]": {"tested_on": "P-gp", "parameters": "method as in PMID 25985195, PMID 34597896", "details": "cited from earlier work"}, "P-gp [5]": {"target": "T1, P-gp", "assay": "Intracellular EC31 or PTX accumulation in LCC6 versus LCC6MDR cells", "format": "cell-based", "parameters": "expressed in transfected cells; host or cells: MDA435/LCC6MDR (human breast cancer line, gift of Dr. Robert Clarke)", "details": "from accumulation and efflux in cells with or without P-gp", "from_the_text": "as §1"}, "MRP1": {"tested_on": "MRP1", "details": "Cpds at 1 μM; IC50 of DOX without/with modulator; cited from earlier work"}, "P-gp [6]": {"tested_on": "P-gp", "assay": "DOX efflux in P388ADR cells", "format": "cell-based, mouse", "details": "1 µM modulator; after 180 min of efflux; P388ADR preloaded with 20 µM DOX", "description": "Figure 2 Effect of methylated catechin derivatives on intracellular DOX accumulation and DOX efflux in the P-gp-overexpressing cancer cells. […] Then, the cells were washed, and the intracellular DOX level was measured using flow cytometer. (A) LCC6MDR, (B) P388ADR, and (C) K562/P-gp. […] (D) In the efflux study, P388ADR cells were firstly incubated with 20 µM DOX for 45 min. […] At 60, 120, and 180 min, the cells were harvested, and the intracellular DOX level was measured. At 180 min, ** represents p < 0.01, and *** represents p < 0.001, both being relative to P388ADR incubated with DMSO only. […] N = 3 independent experiments. DMSO was used as a solvent control, and the highest amount used was 0.5%.\nWe investigated if methylated catechin derivatives could inhibit P-gp-mediated drug efflux in P-gp-overexpressing cells. […] Without a modulator, intracellularly, the DOX level was maintained at 80% and 11% after 180 min for P388 and P388ADR cells, respectively (Figure 2D). […] After 180 min of efflux, the intracellular DOX level could be maintained at 61% (p < 0.001), 59% (p < 0.01), 44 % (p < 0.001), and 37%, respectively (Figure 2D)."}, "P-gp [7]": {"target": "T1, P-gp", "parameters": "expressed in transfected cells; host or cells: MDA435/LCC6MDR (human breast cancer line, gift of Dr. Robert Clarke)", "details": "Cpds at 1 μM; IC50 of PTX without/with modulator; cited from earlier work"}}, "note": "Read-outs that look alike come from different tables or passages of the source.", "data": [{"smiles": "COc1cc(OC)c2c(c1)O[C@H](c1ccc(OC)c(OC)c1)[C@H](OC(=O)c1ccc(F)c(NC(=O)c3cc(OC)c(OC)c(OC)c3)c1)C2", "note": "[EC31]", "values": [{"measurement": "EC50", "setting": "P-gp [1]; DOX Resistance, K562/P-gp, concentration that reduces IC50 of DOX by half", "value": "93 ± 33", "unit": "nM"}, {"measurement": "EC50", "setting": "P-gp [1]; VCR Resistance, K562, concentration that reduces IC50 of VCR by half, column head prints K562", "value": "37 ± 10", "unit": "nM"}, {"measurement": "median survival", "setting": "P388ADR leukemia; EC31 60 mg/kg i.p. + DOX 3 mg/kg i.p.", "value": 21.5, "unit": "days"}, {"measurement": "ILS% (increase in lifespan)", "setting": "P388ADR leukemia; EC31 60 mg/kg i.p. + DOX 3 mg/kg i.p. compared to DOX alone", "value": 30.3, "unit": "%"}, {"measurement": "EC50", "setting": "P-gp [2]; read-out: EC50 for Reversing MDR, DOX Resistance, P388ADR, concentration that reduces IC50 of DOX by half", "value": "186 ± 31", "unit": "nM"}, {"measurement": "EC50", "setting": "P-gp [2]; read-out: EC50 for Reversing MDR, PTX Resistance, P388ADR, concentration that reduces IC50 of PTX by half", "value": "249 ± 18", "unit": "nM"}, {"measurement": "EC50", "setting": "P-gp [3]; DOX Resistance, concentration that reduces IC50 of DOX by half", "value": "159 ± 21", "unit": "nM"}, {"measurement": "EC50", "setting": "P-gp [3]; PTX Resistance, concentration that reduces IC50 of PTX by half", "value": "94 ± 21", "unit": "nM"}, {"measurement": "fold lower EC50 than that of verapamil", "setting": "P-gp [3]; reversing PTX resistance in LCC6MDR", "value": "about 4.7 fold"}, {"measurement": "EC31 remaining in cells", "setting": "K562/P-gp cells", "value": "~16", "unit": "%"}, {"measurement": "effect on plasma membrane level of P-gp", "setting": "P-gp [4]", "value": "did not affect"}, {"measurement": "P-gp transport substrate status", "setting": "P-gp [5]", "value": "not a transport substrate of P-gp"}, {"measurement": "2008MRP1 MRP1-modulating activity RF (relative fold)", "setting": "MRP1", "value": 1.3}, {"measurement": "Relative intracellular DOX level (%)", "setting": "P-gp [6]", "value": 44, "unit": "%"}, {"measurement": "LCC6MDR P-gp-modulating activity RF (relative fold)", "setting": "P-gp [7]", "value": 69.3}]}]}
